According to ChEMBL document CHEMBL1201862, “PubChem BioAssay data set” (2004):
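All cell lines were grown in 96-well plates and treated with compound for 48 hours. GI50 marks 50% less growth.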 Calls of active or inactive are those of the source. Rule as the data show it: active = GI50 up to about 1.1 µM and inactive = higher.

Tests used:
Experiment in all cases: DTP human tumour cell line panel, 48 h
786-0 = system: 786-0
A498 = system: A498
ACHN = system: ACHN
BT-549 = system: BT-549
CAKI-1 = system: CAKI-1
CCRF-CEM = system: CCRF-CEM
COLO 205 = system: COLO 205
DU-145 = system: DU-145
EKVX = system: EKVX
HCC 2998 = system: HCC 2998
HCT-116 = system: HCT-116
HCT-15 = system: HCT-15
HL-60 = system: HL-60
HOP-62 = system: HOP-62
HOP-92 = system: HOP-92
Hs-578T = system: Hs-578T
IGROV-1 = system: IGROV-1
K562 = system: K562
KM12 = system: KM12
LOX IMVI = system: LOX IMVI
M14 = system: M14
MCF7 = system: MCF7
MDA-MB-231 = system: MDA-MB-231
MDA-MB-435 = system: MDA-MB-435
MDA-N = system: MDA-N
MOLT-4 = system: MOLT-4
NCI-H226 = system: NCI-H226
NCI-H23 = system: NCI-H23
NCI-H460 = system: NCI-H460
NCI-H522 = system: NCI-H522
NCI/ADR-RES = system: NCI/ADR-RES
OVCAR-3 = system: OVCAR-3
OVCAR-4 = system: OVCAR-4
OVCAR-5 = system: OVCAR-5
OVCAR-8 = system: OVCAR-8
PC-3 = system: PC-3
RXF 393 = system: RXF 393
SF-268 = system: SF-268
SF-295 = system: SF-295
SF-539 = system: SF-539
SK-MEL-2 = system: SK-MEL-2
SK-MEL-5 = system: SK-MEL-5
SK-OV-3 = system: SK-OV-3
SN12C = system: SN12C
SNB-19 = system: SNB-19
SNB-75 = system: SNB-75
SR = system: SR
SW-620 = system: SW-620
T47D = system: T47D
TK-10 = system: TK-10
U-251 = system: U-251
UACC-257 = system: UACC-257
UACC-62 = system: UACC-62
UO-31 = system: UO-31
A549 = system: A549
HT-29 = system: HT-29
Malme-3M = system: Malme-3M
RPMI-8226 = system: RPMI-8226
SK-MEL-28 = system: SK-MEL-28

SMILES: CC(=O)O[C@@H]1[C@H]2[C@@H](OC(=O)c3ccccc3)[C@@H](C)C[C@]2(O)[C@H](OC(C)=O)[C@@]2(C)[C@@H]3C[C@@](C)(OC(C)=O)C[C@@H](OC(C)=O)[C@@]3(OC(C)=O)C[C@@]12C
- GI50 (786-0): > 10 µM (inactive)
- GI50 (A498): > 10 µM (inactive)
- GI50 (ACHN): > 10 µM (inactive)
- GI50 (BT-549): > 10 µM (inactive)
- GI50 (CAKI-1): > 10 µM (inactive)
- GI50 (CCRF-CEM): > 10 µM (inactive)
- GI50 (COLO 205): > 10 µM (inactive)
- GI50 (DU-145): > 10 µM (inactive)
- GI50 (EKVX): > 10 µM (inactive)
- GI50 (HCC 2998): > 10 µM (inactive)
- GI50 (HCT-116): > 10 µM (inactive)
- GI50 (HCT-15): > 10 µM
- GI50 (HL-60): > 10 µM (inactive)
- GI50 (HOP-62): > 10 µM (inactive)
- GI50 (HOP-92): > 10 µM (inactive)
- GI50 (Hs-578T): > 10 µM (inactive)
- GI50 (IGROV-1): > 10 µM (inactive)
- GI50 (K562): > 10 µM (inactive)
- GI50 (KM12): > 10 µM (inactive)
- GI50 (LOX IMVI): > 10 µM (inactive)
- GI50 (M14): > 10 µM (inactive)
- GI50 (MCF7): > 10 µM (inactive)
- GI50 (MDA-MB-231): > 10 µM (inactive)
- GI50 (MDA-MB-435): > 10 µM (inactive)
- GI50 (MDA-N): > 10 µM (inactive)
- GI50 (MOLT-4): > 10 µM (inactive)
- GI50 (NCI-H226): > 10 µM (inactive)
- GI50 (NCI-H23): > 10 µM (inactive)
- GI50 (NCI-H460): > 10 µM (inactive)
- GI50 (NCI-H522): > 10 µM (inactive)
- GI50 (NCI/ADR-RES): > 10 µM (inactive)
- GI50 (OVCAR-3): > 10 µM (inactive)
- GI50 (OVCAR-4): > 10 µM (inactive)
- GI50 (OVCAR-5): > 10 µM (inactive)
- GI50 (OVCAR-8): > 10 µM (inactive)
- GI50 (PC-3): > 10 µM (inactive)
- GI50 (RXF 393): > 10 µM (inactive)
- GI50 (SF-268): > 10 µM (inactive)
- GI50 (SF-295): > 10 µM (inactive)
- GI50 (SF-539): > 10 µM (inactive)
- GI50 (SK-MEL-2): > 10 µM (inactive)
- GI50 (SK-MEL-5): > 10 µM (inactive)
- GI50 (SK-OV-3): > 10 µM (inactive)
- GI50 (SN12C): > 10 µM (inactive)
- GI50 (SNB-19): > 10 µM (inactive)
- GI50 (SNB-75): > 10 µM (inactive)
- GI50 (SR): > 10 µM (inactive)
- GI50 (SW-620): > 10 µM (inactive)
- GI50 (T47D): > 10 µM (inactive)
- GI50 (TK-10): > 10 µM (inactive)
- GI50 (U-251): > 10 µM (inactive)
- GI50 (UACC-257): > 10 µM (inactive)
- GI50 (UACC-62): > 10 µM (inactive)
- GI50 (UO-31): > 10 µM (inactive)

SMILES: COc1ccc(C2C(C#N)=C(S)N(C3OC(CO)C(O)C(O)C3O)C(c3ccccc3)=C2C(C)=O)cc1 (stereo not given)
- GI50 (786-0): 67.3 µM (inactive)
- GI50 (A498): > 100 µM (inactive)
- GI50 (A549): > 100 µM (inactive)
- GI50 (ACHN): 83.9 µM (inactive)
- GI50 (BT-549): > 100 µM (inactive)
- GI50 (CCRF-CEM): 63.1 µM (inactive)
- GI50 (COLO 205): > 100 µM (inactive)
- GI50 (DU-145): > 100 µM (inactive)
- GI50 (HCC 2998): 92 µM (inactive)
- GI50 (HCT-116): 70.6 µM (inactive)
- GI50 (HCT-15): 74.6 µM
- GI50 (HL-60): 39.7 µM (inactive)
- GI50 (HOP-62): 67.1 µM (inactive)
- GI50 (HOP-92): 46.1 µM (inactive)
- GI50 (HT-29): 46.1 µM (inactive)
- GI50 (Hs-578T): 45.3 µM (inactive)
- GI50 (IGROV-1): > 100 µM (inactive)
- GI50 (K562): 43.6 µM (inactive)
- GI50 (KM12): > 100 µM (inactive)
- GI50 (LOX IMVI): 60.1 µM (inactive)
- GI50 (M14): 65 µM (inactive)
- GI50 (MCF7): 72.1 µM (inactive)
- GI50 (MDA-MB-231): 95.5 µM (inactive)
- GI50 (MDA-MB-435): 32.6 µM (inactive)
- GI50 (MDA-N): 37.2 µM (inactive)
- GI50 (MOLT-4): 28.1 µM (inactive)
- GI50 (Malme-3M): 70.6 µM (inactive)
- GI50 (NCI-H226): > 100 µM (inactive)
- GI50 (NCI-H23): > 100 µM (inactive)
- GI50 (NCI-H460): 88.1 µM (inactive)
- GI50 (NCI-H522): 26.9 µM (inactive)
- GI50 (NCI/ADR-RES): > 100 µM (inactive)
- GI50 (OVCAR-3): 22.2 µM (inactive)
- GI50 (OVCAR-4): > 10 µM (inactive)
- GI50 (OVCAR-5): > 100 µM (inactive)
- GI50 (OVCAR-8): 63.7 µM (inactive)
- GI50 (PC-3): 48.2 µM (inactive)
- GI50 (RPMI-8226): 51.3 µM (inactive)
- GI50 (RXF 393): > 100 µM (inactive)
- GI50 (SF-268): 45.7 µM (inactive)
- GI50 (SF-295): > 100 µM (inactive)
- GI50 (SF-539): 78.2 µM (inactive)
- GI50 (SK-MEL-28): 91.8 µM (inactive)
- GI50 (SK-MEL-2): 49.7 µM (inactive)
- GI50 (SK-MEL-5): 25.1 µM (inactive)
- GI50 (SN12C): > 100 µM (inactive)
- GI50 (SNB-19): 89.3 µM (inactive)
- GI50 (SNB-75): 23.6 µM (inactive)
- GI50 (SR): 40.3 µM (inactive)
- GI50 (SW-620): 7.18 µM (inactive)
- GI50 (T47D): 6.18 µM (inactive)
- GI50 (TK-10): > 100 µM (inactive)
- GI50 (U-251): 53.2 µM (inactive)
- GI50 (UACC-257): 77.4 µM (inactive)
- GI50 (UACC-62): 58.6 µM (inactive)
- GI50 (UO-31): > 100 µM (inactive)
